How the values were obtained:
[1] = test system: anti-Neu5Gc antibodies in human sera; assay: Inhibition of human serum anti-Neu5Gc antibody ELISA reactivity to Neu5Gc-PAA; format: binding; conditions: free sugar at 2 mM
Method: Detection of Anti-Neu5Gc and anti-α-Gal specific antibodies in human sera—Microtiter (Costar, Corning, N.Y.) plate wells were coated with Neu5Ac-polyacrylamide(PAA), Neu5Gc-PAA, or Galα1-3GalBeta1-4GlcNAc-PAA (Glycotech, Rockville, Md.) at a concentration of 500 ng/well, in 50 mM sodium carbonate-bicarbonate buffer pH 9.5, at 4° C. overnight. After washing with TBS, pH 7.5 and blocking with TBST for 2 h at RT, triplicate wells were incubated with 1:50 dilutions of serum in TBST at RT for 4 h. Wells were washed 5 times with TBS, and incubated with HRP-conjugated mouse anti-human IgA (Calbiochem, San Diego, Calif.), anti-human IgG (Jackson ImmunoResearch, West Grove, Pa.) or anti-human IgM (KPL, Gaithersburg, Md.) each diluted in TBST at 1:20,000, at RT for 1.5 hour. The IgG anti-Neu5Gc and anti-α-Gal antibodies were quantitated using a standard curve of normal human IgG coated to the wells under the same general conditions.
Anti-Neu5Gc antibodies of the IgA, IgM and IgG classes were detected in the sera of all three subjects who ingested Neu5Gc at baseline, but no increases occurred after Neu5Gc ingestion (not shown). […] Specificity was confirmed by showing that anti-Neu5Gc reactivity was blocked by chimpanzee serum in a concentration-dependent manner, but not by equivalent amounts of a Neu5Gc antibody-negative human serum (FIG. 4B). […]

human cells = assay: Human cells fed with free Neu5Gc, incorporation into endogenous glycoproteins; format: cell-based
Text: It is therefore reasoned that the Neu5Gc in normal humans originates from exogenous sources. […] Likewise, human cells cultured in FCS incorporated Neu5Gc from the serum glycoproteins into the native glycoconjugates of the cells (Muchmore, E. A., Diaz, S, and Varki, A. (1998). Am J Phys Anthropol 107:187-198; and Tangvoranuntakul, et al., supra.

[2] = Human Neu5Gc ingestion study; format: in vivo
Method: Human Neu5Gc Ingestion Study—Human subjects were enlisted in the study, and were told to avoid animal foods for 2 days, all medications for 1 day, use a lanolin-free (Neu5Gc-free) shampoo for 2 days, and ingest only fruit juice on the morning of study. Subjects then drank 150 mg of porcine submaxillary mucin Sias (see above) dissolved in 100 ml water. For the next 6 h they drank a 1:1 mixture of fruit juice and soymilk (Sia free) at ˜2 ml/Kg/hr. Serum, urine and saliva samples were obtained at multiple time points. Human saliva was collected by chewing parafilm, after washing the mouth out well with water. Urine volume and pH were recorded prior to centrifugation at 1000 g for 10 min, and collection of the supernatant. All samples were stored frozen at −20° C. Head hairs (˜20) and/or facial hair trimmings (from men) were collected prior to, and on several days after Neu5Gc ingestion.
Purification and analysis of Sialic Acids and N-acylmannosamines from Human Samples—Human salivary mucin was precipitated by adjusting to pH 3 with 100 mM acetic acid, stirring at 4° C. overnight, collected at 14,000 g for 10 min, and washed twice with 1 ml of ice-cold PBS. Human hair clippings were washed in 100 mM ice-cold acetic acid for two h and crushed in a clean ceramic mortar. Bound Sias from saliva, hair or serum were released with mild acid as above, filtered through Microcon 10 filters (Millipore, Bedford, Mass.), dried down, reconstituted in water and analyzed for Sia content by DMB-HPLC.
Five ml urine aliquots were diluted 5-fold and loaded onto 10 ml columns of AG50W-X2 resin (H^+ form, BioRad, Richmond, Calif.) equilibrated in water. The run-through and washes (2×10 ml of water) were pooled and loaded onto 10 ml columns of AG1X8 resin (Formate form, BioRad) equilibrated in water. The combined run-through and washes (2×10 ml of water) were lyophilized. After washing with 5 volumes of 10 mM formic acid, free Sias were eluted with 5 volumes of 1M formic acid, diluted two-fold with water, and lyophilized.
Free Sias were purified from urine samples, and analyzed for Neu5Gc content by DMB-HPLC. Since overlapping fluorescent peaks prevented definitive identification and quantification, HPLC fractions eluting at the time expected for DMB-Neu5Gc were collected and subjected to MS, confirming an increase in ion peaks at m/z 424 and m/z 442. The sum of ion intensities of m/z 424 and m/z 442 at each time point provided an estimate of Neu5Gc quantity. Ingested Neu5Gc was rapidly absorbed and excreted into the urine (FIG. 3A). About 3-6% of the ingested dose was excreted within 4-6 h, with the peak excretion rate at 2-3 h and a return to baseline levels within 24 h.

Caco-2 cells = assay: Feeding of human epithelial cells with Neu5Gc; format: cell-based; conditions: Caco-2, 3 mM Neu5Gc for 3 days, HPLC
Method: Feeding of Human Epithelial Cells with Neu5Gc—Caco-2 cells (human epithelial cells isolated from a primary colon carcinoma, ATCC, Manassas, Va.), were propagated in α-MEM (Gibco, Invitrogen Corporation, San Diego, Calif.) supplemented with 20% heat inactivated Fetal Calf Serum, at 37° C., 5% CO2. Prior to feeding, the cells were split and cultured for 4 days in α-MEM supplemented with 20% heat inactivated premium human serum type AB (Irvine scientific, Santa Ana, Calif.). Cells were then cultured in the presence of various concentrations of free Neu5Gc (0, 0.3, 1 and 3 mM, respectively) for 3 days at 37° C. Cells were then washed with cold PBS, scraped into 20 mM sodium phosphate pH 7.5 and sonicated. The protein extract was quantified and analysed by Western blot using the anti-Neu5Gc antibody.
Although human cells cultured in fetal calf serum express cell surface Neu5Gc in small amounts (Muchmore, et al., supra, and Oetke, et al., supra), this could represent either metabolic incorporation or non-specific absorption. Human epithelial cells were cultured in human serum until no traces of Neu5Gc derived from fetal calf serum could be detected by HPLC (typically ˜4 days). Culture was then continued for 3 days in the absence or presence of varying amounts of free Neu5Gc. […]

SMILES | inhibition of anti-Neu5Gc reactivity of human sera [1] | level of Neu5Gc incorporated into endogenous glycoproteins (human cells) | subjects with increase of Neu5Gc in salivary mucins ([2]; 2 days after ingestion, MS) | time of decline of salivary mucin Neu5Gc to baseline levels ([2]; after ingestion) | Neu5Gc in serum samples ([2]; any time points after ingestion) | time of peak urinary excretion rate ([2]; oral 150 mg) | time of return of urinary excretion to baseline levels ([2]; oral 150 mg) | reactions to Neu5Gc ingestion ([2]; oral 150 mg, human subjects) | share of the ingested dose excreted into the urine ([2]; within 4-6 h after oral 150 mg porcine submaxillary mucin Sias, MS estimate) | highest level of incorporation of Neu5Gc into the cells, of total Sia (Caco-2 cells)
CC(=O)N[C@H]1[C@H]([C@H](O)[C@H](O)CO)OC(O)(C(=O)O)C[C@@H]1O (some centres unmarked) [Neu5Ac, N-acetylneuraminic acid, reference compound] | not | – | – | – | – | – | – | – | – | –
O=C(CO)N[C@H]1[C@H]([C@H](O)[C@H](O)CO)OC(O)(C(=O)O)C[C@@H]1O (some centres unmarked) [Neu5Gc, N-glycolylneuraminic acid] | > 70% | > 50% | 2 of 3 | ≤ 4 days | not detected | 2 to 3 h | ≤ 24 h | no immediate reactions | 3-6% | 85%
